From ChEMBL document CHEMBL1201862, “PubChem BioAssay data set” (2004)
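Method: 48-hour compound exposure of cells in 96-well plates, five concentrations, linear interpolation of endpoints. GI50 is the concentration that inhibits growth by half.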 Calls of active or inactive are those of the source. No stated cut-off is given here; in the data, active = GI50 up to about 1.1 µM and inactive = higher.

What was measured:
Test in all cases: growth of human tumour cells (NCI), 48 h
[1] = test system: BT-549
[2] = test system: HCT-15
[3] = test system: Malme-3M
[4] = test system: KM12
[5] = test system: UACC-62
[6] = test system: OVCAR-8
[7] = test system: UO-31
[8] = test system: COLO 205
[9] = test system: HOP-92
[10] = test system: CCRF-CEM
[11] = test system: SNB-19
[12] = test system: SR
[13] = test system: MDA-MB-231
[14] = test system: SF-295
[15] = test system: RPMI-8226
[16] = test system: SK-MEL-28
[17] = test system: SK-MEL-5
[18] = test system: SK-OV-3
[19] = test system: DU-145
[20] = test system: MDA-N
[21] = test system: M14
[22] = test system: UACC-257
[23] = test system: OVCAR-3
[24] = test system: ACHN
[25] = test system: SF-539
[26] = test system: LOX IMVI
[27] = test system: MCF7
[28] = test system: NCI-H522
[29] = test system: MDA-MB-435
[30] = test system: SW-620
[31] = test system: HCT-116
[32] = test system: EKVX
[33] = test system: CAKI-1
[34] = test system: OVCAR-4
[35] = test system: K562
[36] = test system: NCI-H226
[37] = test system: SK-MEL-2
[38] = test system: MOLT-4
[39] = test system: SNB-75
[40] = test system: OVCAR-5
[41] = test system: TK-10
[42] = test system: IGROV-1
[43] = test system: HL-60
[44] = test system: HCC 2998
[45] = test system: A498
[46] = test system: PC-3
[47] = test system: U-251
[48] = test system: NCI-H460
[49] = test system: A549
[50] = test system: RXF 393
[51] = test system: 786-0
[52] = test system: SN12C
[53] = test system: NCI-H23
[54] = test system: NCI/ADR-RES
[55] = test system: Hs-578T
[56] = test system: T47D
[57] = test system: HT-29
[58] = test system: SF-268
[59] = test system: HOP-62

Which results are given for `C=C1c2nc3ccccc3n2C=C(c2ccc(Cl)cc2)N1c1ccc(OC)cc1`?
GI50 [1]: 2.67 µM (inactive); GI50 [2]: 10.1 µM; GI50 [3]: 2.82 µM (inactive); GI50 [4]: 6.81 µM (inactive); GI50 [5]: 13 µM (inactive); GI50 [6]: 4.43 µM (inactive); GI50 [7]: 6.38 µM (inactive); GI50 [8]: 21.8 µM (inactive); GI50 [9]: 10.3 µM (inactive); GI50 [10]: > 100 µM (inactive); GI50 [11]: 3.44 µM (inactive); GI50 [12]: 11.2 µM (inactive); GI50 [13]: 12.7 µM (inactive); GI50 [14]: 6.19 µM (inactive); GI50 [15]: 14.5 µM (inactive); GI50 [16]: 7.57 µM (inactive); GI50 [17]: 6.53 µM (inactive); GI50 [18]: 10.7 µM (inactive); GI50 [19]: 15.6 µM (inactive); GI50 [20]: 13.2 µM (inactive); GI50 [21]: 7.8 µM (inactive); GI50 [22]: 5.07 µM (inactive); GI50 [23]: 10.8 µM (inactive); GI50 [24]: 3.56 µM (inactive); GI50 [25]: 5.87 µM (inactive); GI50 [26]: 36.9 µM (inactive); GI50 [27]: 7.4 µM (inactive); GI50 [28]: 4 µM (inactive); GI50 [29]: 8.28 µM (inactive); GI50 [30]: 17.7 µM (inactive); GI50 [31]: 6.97 µM (inactive); GI50 [32]: 8.51 µM (inactive); GI50 [33]: 4.58 µM (inactive); GI50 [34]: 6 µM (inactive); GI50 [35]: 25.6 µM (inactive); GI50 [36]: 5.46 µM (inactive); GI50 [37]: 22.9 µM (inactive); GI50 [38]: 73.1 µM (inactive); GI50 [39]: 2.67 µM (inactive); GI50 [40]: 17.4 µM (inactive); GI50 [41]: 4.82 µM (inactive); GI50 [42]: 6.27 µM (inactive); GI50 [43]: 76.7 µM (inactive); GI50 [44]: 8.85 µM (inactive); GI50 [45]: 20.6 µM (inactive); GI50 [46]: 15.4 µM (inactive); GI50 [47]: 8.38 µM (inactive); GI50 [48]: 6.47 µM (inactive); GI50 [49]: 10.9 µM (inactive); GI50 [50]: 10.1 µM (inactive); GI50 [51]: 4.39 µM (inactive); GI50 [52]: 11.9 µM (inactive); GI50 [53]: 9.95 µM (inactive); GI50 [54]: 3.48 µM (inactive)

What does the source list for `Cc1nc2ccccc2c(-n2cccn2)c1CCn1cccn1`?
GI50 [2]: > 100 µM; GI50 [3]: > 100 µM (inactive); GI50 [4]: > 100 µM (inactive); GI50 [5]: 80.2 µM (inactive); GI50 [6]: > 100 µM (inactive); GI50 [7]: 1.77 µM (inactive); GI50 [8]: 96.6 µM (inactive); GI50 [9]: 52.8 µM (inactive); GI50 [10]: 66.1 µM (inactive); GI50 [11]: > 100 µM (inactive); GI50 [12]: 71.4 µM (inactive); GI50 [13]: 51.4 µM (inactive); GI50 [55]: > 100 µM (inactive); GI50 [14]: > 100 µM (inactive); GI50 [15]: > 100 µM (inactive); GI50 [16]: > 100 µM (inactive); GI50 [17]: 46.6 µM (inactive); GI50 [18]: > 100 µM (inactive); GI50 [19]: > 100 µM (inactive); GI50 [20]: > 100 µM (inactive); GI50 [21]: > 100 µM (inactive); GI50 [22]: > 100 µM (inactive); GI50 [23]: 40.4 µM (inactive); GI50 [56]: > 100 µM (inactive); GI50 [24]: 80.7 µM (inactive); GI50 [25]: > 100 µM (inactive); GI50 [26]: 50.6 µM (inactive); GI50 [27]: > 100 µM (inactive); GI50 [28]: > 100 µM (inactive); GI50 [29]: > 100 µM (inactive); GI50 [30]: > 100 µM (inactive); GI50 [31]: > 100 µM (inactive); GI50 [32]: > 100 µM (inactive); GI50 [33]: > 100 µM (inactive); GI50 [34]: 23.8 µM (inactive); GI50 [57]: > 100 µM (inactive); GI50 [35]: 55 µM (inactive); GI50 [36]: > 100 µM (inactive); GI50 [37]: > 100 µM (inactive); GI50 [38]: 39.4 µM (inactive); GI50 [40]: > 100 µM (inactive); GI50 [41]: > 100 µM (inactive); GI50 [42]: 85.9 µM (inactive); GI50 [43]: > 100 µM (inactive); GI50 [44]: > 100 µM (inactive); GI50 [58]: > 100 µM (inactive); GI50 [45]: 46.3 µM (inactive); GI50 [46]: > 100 µM (inactive); GI50 [47]: > 100 µM (inactive); GI50 [59]: > 100 µM (inactive); GI50 [48]: > 100 µM (inactive); GI50 [49]: > 100 µM (inactive); GI50 [50]: > 100 µM (inactive); GI50 [51]: > 100 µM (inactive); GI50 [52]: > 100 µM (inactive); GI50 [53]: > 100 µM (inactive); GI50 [54]: > 100 µM (inactive)
